The source made the active and inactive calls.
What was measured:
[1] = target: T1, Methionyl-tRNA synthetase, putative (Trypanosoma brucei brucei, UniProt Q38C91); type: functional, Trypanosoma brucei brucei strain 927/4 GUTat10.1
T1 sequence (Q38C91 whole entry): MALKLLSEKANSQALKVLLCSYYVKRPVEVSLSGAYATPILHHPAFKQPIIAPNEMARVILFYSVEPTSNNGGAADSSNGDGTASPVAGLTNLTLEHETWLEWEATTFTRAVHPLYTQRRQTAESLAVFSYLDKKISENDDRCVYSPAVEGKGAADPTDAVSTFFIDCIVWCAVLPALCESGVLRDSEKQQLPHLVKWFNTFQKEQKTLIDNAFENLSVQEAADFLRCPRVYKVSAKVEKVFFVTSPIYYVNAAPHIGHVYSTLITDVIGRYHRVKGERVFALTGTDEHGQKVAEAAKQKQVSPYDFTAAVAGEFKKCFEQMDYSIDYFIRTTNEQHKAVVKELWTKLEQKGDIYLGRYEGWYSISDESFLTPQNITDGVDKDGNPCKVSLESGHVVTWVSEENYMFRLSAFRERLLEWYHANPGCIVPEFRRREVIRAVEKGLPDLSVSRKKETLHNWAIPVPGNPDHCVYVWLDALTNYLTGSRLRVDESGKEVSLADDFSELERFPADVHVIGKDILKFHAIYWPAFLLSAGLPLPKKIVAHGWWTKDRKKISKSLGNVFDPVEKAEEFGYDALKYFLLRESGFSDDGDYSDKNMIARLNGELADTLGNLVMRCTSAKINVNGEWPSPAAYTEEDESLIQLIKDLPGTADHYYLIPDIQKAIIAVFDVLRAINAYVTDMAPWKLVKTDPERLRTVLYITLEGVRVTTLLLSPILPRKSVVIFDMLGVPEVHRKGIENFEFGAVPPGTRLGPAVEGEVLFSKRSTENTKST

[2] = Counterscreen for inhibitors of Trypanosoma brucei methionyl tRNA synthetase (MetRS): Luminescence-based cell-based high throughput dose response assay to identify compounds that are cytotoxic to Jurkat human T lymphocyte cells.; type: functional
[3] = target: T1, Methionyl-tRNA synthetase, putative; type: functional, Trypanosoma brucei brucei strain 927/4 GUTat10.1; remark: listed apart in the source
[4] = target: Beta-galactosidase (Escherichia coli, UniProt Q8VNN2); assay: Dose response counterscreen for EBI2 assay utilizing the enzyme, b-galactosidase.; type: functional
Chain of Beta-galactosidase (Q8VNN2 whole entry): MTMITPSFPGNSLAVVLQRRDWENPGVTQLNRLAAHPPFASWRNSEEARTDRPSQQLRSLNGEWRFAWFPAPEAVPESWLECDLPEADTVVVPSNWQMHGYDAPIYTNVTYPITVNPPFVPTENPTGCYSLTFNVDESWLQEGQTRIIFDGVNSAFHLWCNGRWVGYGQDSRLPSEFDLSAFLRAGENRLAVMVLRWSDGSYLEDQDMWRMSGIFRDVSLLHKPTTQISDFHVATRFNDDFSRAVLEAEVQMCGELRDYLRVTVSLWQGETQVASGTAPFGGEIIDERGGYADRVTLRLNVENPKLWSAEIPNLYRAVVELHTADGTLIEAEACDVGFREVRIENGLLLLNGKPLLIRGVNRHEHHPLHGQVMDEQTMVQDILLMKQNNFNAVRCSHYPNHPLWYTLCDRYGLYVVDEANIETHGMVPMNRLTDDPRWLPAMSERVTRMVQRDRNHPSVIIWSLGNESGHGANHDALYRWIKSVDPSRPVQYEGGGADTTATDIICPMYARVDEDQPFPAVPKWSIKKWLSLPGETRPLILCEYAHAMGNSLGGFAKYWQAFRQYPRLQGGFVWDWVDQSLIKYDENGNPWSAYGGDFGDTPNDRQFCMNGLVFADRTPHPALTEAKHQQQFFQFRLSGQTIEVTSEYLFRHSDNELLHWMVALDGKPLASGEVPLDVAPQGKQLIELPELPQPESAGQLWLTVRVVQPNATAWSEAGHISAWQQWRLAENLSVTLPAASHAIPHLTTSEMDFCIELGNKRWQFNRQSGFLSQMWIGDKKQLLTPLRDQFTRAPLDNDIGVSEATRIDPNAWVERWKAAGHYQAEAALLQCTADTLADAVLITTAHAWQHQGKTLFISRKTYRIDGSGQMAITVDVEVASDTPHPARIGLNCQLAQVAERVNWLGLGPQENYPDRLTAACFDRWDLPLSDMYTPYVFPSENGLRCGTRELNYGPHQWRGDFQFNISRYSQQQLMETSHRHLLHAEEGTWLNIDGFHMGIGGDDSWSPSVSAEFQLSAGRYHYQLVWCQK

[5] = target: Nuclear receptor subfamily 5 group A member 2 (Homo sapiens, UniProt O00482); type: functional, cell-based;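 note: HEK293T cells transfected with LRH-1 and a StAR promoter luciferase reporter; potency for inhibitors that lower LRH-1 driven reporter light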
Chain of Nuclear receptor subfamily 5 group A member 2 (O00482 whole entry): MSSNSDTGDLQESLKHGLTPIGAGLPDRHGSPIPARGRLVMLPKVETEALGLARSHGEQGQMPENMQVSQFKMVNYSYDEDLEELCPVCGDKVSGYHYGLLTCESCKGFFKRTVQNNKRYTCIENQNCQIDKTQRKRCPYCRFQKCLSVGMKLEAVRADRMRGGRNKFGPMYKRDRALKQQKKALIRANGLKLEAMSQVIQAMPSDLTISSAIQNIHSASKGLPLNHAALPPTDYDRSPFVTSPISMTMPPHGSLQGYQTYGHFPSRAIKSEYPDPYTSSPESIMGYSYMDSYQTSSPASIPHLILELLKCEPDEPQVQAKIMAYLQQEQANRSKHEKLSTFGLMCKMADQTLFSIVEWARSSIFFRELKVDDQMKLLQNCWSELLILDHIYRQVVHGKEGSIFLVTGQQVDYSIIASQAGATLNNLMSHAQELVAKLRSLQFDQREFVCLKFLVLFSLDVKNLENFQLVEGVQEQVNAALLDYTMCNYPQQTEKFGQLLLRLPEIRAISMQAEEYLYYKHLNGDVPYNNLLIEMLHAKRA

[6] = nonselective StAR promoter luciferase inhibitors – cell-based, luminescence, luciferase reporter, counter-screen for LRH-1 inverse agonist project, dose response (AID 651969); type: functional
[7] = target: Steroidogenic factor 1 (Homo sapiens, UniProt Q13285); assay: Counterscreen for inverse agonists of the liver receptor homolog-1 (LRH-1; NR5A2): Luminescence-based cell-based high throughput dose response assay to identify inverse agonists of the Steroidogenic Factor 1 Nuclear Receptor (SF1; NR5A1).; type: functional
Chain of Steroidogenic factor 1 (Q13285 whole entry): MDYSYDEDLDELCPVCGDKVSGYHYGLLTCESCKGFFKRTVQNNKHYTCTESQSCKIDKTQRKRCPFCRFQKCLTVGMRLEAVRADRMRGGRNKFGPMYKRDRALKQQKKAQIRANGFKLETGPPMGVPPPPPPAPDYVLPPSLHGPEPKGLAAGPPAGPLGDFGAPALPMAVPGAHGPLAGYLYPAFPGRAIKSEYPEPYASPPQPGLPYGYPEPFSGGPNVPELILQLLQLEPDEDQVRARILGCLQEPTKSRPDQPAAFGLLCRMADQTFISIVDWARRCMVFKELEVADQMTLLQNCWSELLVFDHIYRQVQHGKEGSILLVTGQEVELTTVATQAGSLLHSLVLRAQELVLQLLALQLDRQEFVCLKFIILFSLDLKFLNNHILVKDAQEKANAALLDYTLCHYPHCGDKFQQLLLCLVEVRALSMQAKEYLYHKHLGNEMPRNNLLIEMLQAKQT

[8] = target: T2, Long-chain-fatty-acid--AMP ligase FadD28 (Mycobacterium tuberculosis, UniProt P9WQ59); assay: Fluorescence polarization aasay to screen for inhibitors that compete for the binding of FadD28 to a bisubstrate Measured in Biochemical System Using Plate Reader - 2147-01_Inhibitor_Dose_CherryPick_Activity.; type: functional, Mycobacterium tuberculosis H37Rv
T2 sequence (P9WQ59 whole entry): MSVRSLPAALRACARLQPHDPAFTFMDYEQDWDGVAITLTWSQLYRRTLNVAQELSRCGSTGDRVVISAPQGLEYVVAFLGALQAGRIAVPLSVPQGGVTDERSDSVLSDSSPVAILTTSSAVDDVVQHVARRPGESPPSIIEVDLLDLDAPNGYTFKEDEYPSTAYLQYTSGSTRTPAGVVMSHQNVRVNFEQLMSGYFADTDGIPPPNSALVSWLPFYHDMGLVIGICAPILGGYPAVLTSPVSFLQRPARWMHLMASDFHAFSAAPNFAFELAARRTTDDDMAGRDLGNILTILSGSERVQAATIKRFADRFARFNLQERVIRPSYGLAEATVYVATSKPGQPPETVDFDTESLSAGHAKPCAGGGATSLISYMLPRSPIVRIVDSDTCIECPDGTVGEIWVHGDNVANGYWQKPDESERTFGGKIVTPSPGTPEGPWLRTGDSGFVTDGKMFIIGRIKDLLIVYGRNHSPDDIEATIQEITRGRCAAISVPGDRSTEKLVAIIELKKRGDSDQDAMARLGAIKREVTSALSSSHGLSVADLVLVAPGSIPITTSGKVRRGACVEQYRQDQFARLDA

[9] = Trypanosoma cruzi growth suppression in host cells – NIH3T3 host cells, beta-gal luminescence, confirmation (AID 2044); type: functional, cell-based;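 note: intracellular parasites grown in NIH/3T3 mouse fibroblasts as host cells; luminescent beta-galactosidase reporter signal from transgenic T. cruzi replicating inside host cells; inhibitors lower the luminescence signal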
[10] = NIH3T3 cell viability loss – ATP luminescence, mouse fibroblasts, counter-screen, dose response (AID 2010); type: functional, cell-based;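 note: cells exposed to compound for about 90 hours before reading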
[11] = target: T3, Fatty acid synthase (Homo sapiens, UniProt P49327); assay: inhibition of human FAS-TE enzyme activity – biochemical, kinetic fluorescence intensity, dose response (AID 624326); type: functional;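 note: rate of fluorescence rise from hydrolysis of a fluorogenic O-methyl fluorescein ester substrate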
T3 sequence (P49327 whole entry): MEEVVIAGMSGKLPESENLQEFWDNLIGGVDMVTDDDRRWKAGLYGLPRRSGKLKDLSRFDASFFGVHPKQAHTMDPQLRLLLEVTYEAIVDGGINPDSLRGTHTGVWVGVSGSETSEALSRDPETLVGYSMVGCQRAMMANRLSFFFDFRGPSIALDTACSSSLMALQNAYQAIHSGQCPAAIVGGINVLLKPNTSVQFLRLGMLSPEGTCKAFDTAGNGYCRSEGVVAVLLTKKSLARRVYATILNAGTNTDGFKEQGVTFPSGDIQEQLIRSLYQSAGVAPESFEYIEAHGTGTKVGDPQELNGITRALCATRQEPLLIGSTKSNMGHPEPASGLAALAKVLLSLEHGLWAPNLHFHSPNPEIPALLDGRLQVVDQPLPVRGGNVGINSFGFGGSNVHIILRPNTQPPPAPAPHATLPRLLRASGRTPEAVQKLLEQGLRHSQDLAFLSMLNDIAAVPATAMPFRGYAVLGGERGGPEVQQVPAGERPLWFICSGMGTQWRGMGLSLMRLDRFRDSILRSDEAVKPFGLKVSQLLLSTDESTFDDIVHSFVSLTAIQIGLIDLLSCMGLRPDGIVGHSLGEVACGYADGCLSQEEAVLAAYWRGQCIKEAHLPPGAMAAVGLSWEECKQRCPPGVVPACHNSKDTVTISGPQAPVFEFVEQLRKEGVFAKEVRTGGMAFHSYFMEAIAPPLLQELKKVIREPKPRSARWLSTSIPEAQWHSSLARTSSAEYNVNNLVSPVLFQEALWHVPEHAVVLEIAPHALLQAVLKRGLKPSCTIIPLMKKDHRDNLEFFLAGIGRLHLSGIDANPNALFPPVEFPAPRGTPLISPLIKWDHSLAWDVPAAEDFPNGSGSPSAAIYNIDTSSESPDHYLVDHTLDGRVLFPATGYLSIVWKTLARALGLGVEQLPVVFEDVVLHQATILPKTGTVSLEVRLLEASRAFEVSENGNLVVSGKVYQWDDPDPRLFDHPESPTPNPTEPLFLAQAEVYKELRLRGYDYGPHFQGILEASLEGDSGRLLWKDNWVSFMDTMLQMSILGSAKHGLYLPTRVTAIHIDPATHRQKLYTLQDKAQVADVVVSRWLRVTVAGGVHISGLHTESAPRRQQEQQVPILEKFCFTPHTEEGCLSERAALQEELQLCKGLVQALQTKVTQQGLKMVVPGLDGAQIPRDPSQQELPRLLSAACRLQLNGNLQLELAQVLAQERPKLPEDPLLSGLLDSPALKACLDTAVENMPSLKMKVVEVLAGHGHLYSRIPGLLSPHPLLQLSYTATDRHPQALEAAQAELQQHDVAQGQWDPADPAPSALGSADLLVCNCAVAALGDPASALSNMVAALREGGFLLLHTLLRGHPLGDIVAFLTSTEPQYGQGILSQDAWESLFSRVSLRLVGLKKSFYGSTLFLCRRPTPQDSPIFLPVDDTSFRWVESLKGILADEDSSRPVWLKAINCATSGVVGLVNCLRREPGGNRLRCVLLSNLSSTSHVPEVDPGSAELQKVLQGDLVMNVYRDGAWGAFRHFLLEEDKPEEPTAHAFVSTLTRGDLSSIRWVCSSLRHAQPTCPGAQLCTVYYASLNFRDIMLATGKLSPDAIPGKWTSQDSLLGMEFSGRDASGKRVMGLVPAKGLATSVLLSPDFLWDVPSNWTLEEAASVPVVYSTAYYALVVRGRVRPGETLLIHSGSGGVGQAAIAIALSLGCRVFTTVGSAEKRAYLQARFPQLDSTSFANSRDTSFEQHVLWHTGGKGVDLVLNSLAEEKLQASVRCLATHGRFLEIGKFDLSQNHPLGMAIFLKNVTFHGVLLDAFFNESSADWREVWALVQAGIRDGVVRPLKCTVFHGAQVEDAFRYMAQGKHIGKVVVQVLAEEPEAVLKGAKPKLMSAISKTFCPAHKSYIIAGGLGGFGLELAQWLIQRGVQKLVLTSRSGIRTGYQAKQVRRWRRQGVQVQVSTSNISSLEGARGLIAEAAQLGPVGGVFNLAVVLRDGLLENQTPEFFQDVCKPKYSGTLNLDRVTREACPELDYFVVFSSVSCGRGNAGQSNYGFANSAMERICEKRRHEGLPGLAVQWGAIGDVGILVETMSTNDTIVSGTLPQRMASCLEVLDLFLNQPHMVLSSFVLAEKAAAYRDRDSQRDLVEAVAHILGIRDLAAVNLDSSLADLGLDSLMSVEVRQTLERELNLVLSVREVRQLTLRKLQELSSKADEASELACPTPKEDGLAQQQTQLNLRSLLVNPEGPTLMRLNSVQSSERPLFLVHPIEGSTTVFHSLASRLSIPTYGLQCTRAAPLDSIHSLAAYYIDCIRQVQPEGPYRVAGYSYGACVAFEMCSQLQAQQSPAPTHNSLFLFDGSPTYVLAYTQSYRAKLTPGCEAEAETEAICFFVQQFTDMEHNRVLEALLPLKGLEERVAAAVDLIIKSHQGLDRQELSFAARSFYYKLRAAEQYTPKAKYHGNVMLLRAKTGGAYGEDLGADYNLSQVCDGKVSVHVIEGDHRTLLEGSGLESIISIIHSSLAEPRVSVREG

[12] = target: T3, Fatty acid synthase; assay: inhibition of human FAS-TE enzyme activity – biochemical, endpoint fluorescence intensity, uHTS hits, dose response (AID 624327); type: functional;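 note: fluorescence from hydrolysis of an O-methyl fluorescein acyl ester substrate by the enzyme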
[13] = target: Photoreceptor-specific nuclear receptor (Homo sapiens, UniProt Q9Y5X4); type: functional, cell-based;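 note: CHO-S cells with Gal4-NCOR and VP16-NR2E3 two-hybrid luciferase reporter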
Chain of Photoreceptor-specific nuclear receptor (Q9Y5X4 whole entry, the tested form may be a part): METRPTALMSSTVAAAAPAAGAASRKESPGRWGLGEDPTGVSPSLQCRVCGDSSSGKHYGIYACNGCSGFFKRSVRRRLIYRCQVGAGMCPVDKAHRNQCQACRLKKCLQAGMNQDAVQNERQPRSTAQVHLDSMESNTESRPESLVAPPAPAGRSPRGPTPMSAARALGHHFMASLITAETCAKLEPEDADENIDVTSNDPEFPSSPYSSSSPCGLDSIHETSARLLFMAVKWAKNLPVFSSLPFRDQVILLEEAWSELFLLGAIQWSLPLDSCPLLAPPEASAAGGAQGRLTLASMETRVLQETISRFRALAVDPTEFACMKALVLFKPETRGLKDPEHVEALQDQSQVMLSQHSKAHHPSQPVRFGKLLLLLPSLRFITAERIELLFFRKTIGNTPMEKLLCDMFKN

[14] = target: T4, Sentrin-specific protease 1 (Homo sapiens, UniProt Q9P0U3); assay: SENP1 catalytic domain blockers, concentration series – biochemical, kinetic FRET, dose response (AID 651697); type: functional; conditions: read-out: IC50_Mean
T4 sequence (Q9P0U3 whole entry): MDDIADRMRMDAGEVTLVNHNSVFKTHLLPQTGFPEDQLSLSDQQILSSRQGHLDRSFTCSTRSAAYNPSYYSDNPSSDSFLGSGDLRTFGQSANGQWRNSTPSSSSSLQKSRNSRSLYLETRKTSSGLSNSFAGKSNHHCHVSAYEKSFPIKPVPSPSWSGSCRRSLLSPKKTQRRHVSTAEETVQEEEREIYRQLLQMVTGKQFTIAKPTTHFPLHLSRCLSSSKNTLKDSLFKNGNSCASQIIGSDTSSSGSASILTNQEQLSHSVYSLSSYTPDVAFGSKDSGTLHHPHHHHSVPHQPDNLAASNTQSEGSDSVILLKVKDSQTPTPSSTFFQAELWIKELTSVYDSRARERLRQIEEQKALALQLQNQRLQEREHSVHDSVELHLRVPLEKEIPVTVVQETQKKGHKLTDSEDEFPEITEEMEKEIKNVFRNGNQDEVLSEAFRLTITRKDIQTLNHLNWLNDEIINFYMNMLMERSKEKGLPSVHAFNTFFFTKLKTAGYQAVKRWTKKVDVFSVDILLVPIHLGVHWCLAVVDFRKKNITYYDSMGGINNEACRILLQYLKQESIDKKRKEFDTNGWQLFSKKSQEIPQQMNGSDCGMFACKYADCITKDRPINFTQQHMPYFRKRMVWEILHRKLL

[15] = target: T4, Sentrin-specific protease 1; assay: Dose response confirmation of small molecule inhibitors of the catalytic domain of the SUMO protease, SENP1 in a FRET assay.; type: functional; conditions: read-out: IC50_Mean
[16] = activation of miR-122 Renilla sensor silencing – cell-based, Huh7 psiCHECK-miR122, Renilla luciferase, cherry-picked, dose response (AID 651956); type: functional;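 note: huh7 hepatoma cells stably carrying a psiCHECK-2 miR-122 sensor plasmid; renilla luciferase signal reporting endogenous miR-122 activity after 48 h compound exposure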
[17] = target: T5, RNA-binding protein pos-1 (Caenorhabditis elegans, UniProt G5EF15); assay: disruptors of C. elegans POS-1 RNA interaction – biochemical, fluorescence polarization, dose response (AID 1964);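 note: purified POS-1 fused to maltose binding protein made in E. coli; potency of compounds blocking POS-1 binding to fluorescent RNA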
T5 sequence (G5EF15 whole entry): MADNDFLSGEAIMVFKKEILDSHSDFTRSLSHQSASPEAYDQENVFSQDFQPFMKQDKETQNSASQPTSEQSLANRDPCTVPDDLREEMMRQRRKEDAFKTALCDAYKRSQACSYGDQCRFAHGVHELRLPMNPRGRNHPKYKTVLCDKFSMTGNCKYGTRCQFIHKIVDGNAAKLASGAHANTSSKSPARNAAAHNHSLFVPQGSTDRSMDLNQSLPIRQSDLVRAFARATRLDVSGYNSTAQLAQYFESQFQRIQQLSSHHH

[18] = target: T6, Zinc finger protein mex-5 (Caenorhabditis elegans, UniProt Q9XUB2); assay: potency of MEX-5 RNA-binding blockers – biochemical, C. elegans, fluorescence polarization, dose response (AID 1960)
T6 sequence (Q9XUB2 whole entry): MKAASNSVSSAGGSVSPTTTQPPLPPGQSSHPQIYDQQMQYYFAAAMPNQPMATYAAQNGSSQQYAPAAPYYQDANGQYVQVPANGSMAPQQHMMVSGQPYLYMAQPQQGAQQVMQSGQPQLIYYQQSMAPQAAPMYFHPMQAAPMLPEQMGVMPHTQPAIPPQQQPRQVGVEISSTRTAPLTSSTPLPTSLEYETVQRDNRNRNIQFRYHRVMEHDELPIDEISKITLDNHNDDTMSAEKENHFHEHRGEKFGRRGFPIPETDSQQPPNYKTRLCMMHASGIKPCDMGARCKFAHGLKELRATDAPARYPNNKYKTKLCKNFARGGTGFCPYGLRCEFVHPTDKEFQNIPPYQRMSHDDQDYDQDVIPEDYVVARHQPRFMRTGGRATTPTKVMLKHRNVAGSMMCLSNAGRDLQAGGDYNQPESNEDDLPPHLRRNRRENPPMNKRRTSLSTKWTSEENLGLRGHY

[19] = target: Paired box protein Pax-8 (Homo sapiens, UniProt Q06710); assay: PAX8 transcriptional activity inhibition in RMG-I – RMG-I cells, luciferase, cherry-pick, dose response (AID 687027); type: functional, cell-based;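 note: luciferase reporter driven by Pax8 target thyroperoxidase promoter measured by SteadyGlo luminescence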
[20] = OVCAR-3 cell viability loss – plate reader, dry powder samples, PAX8 inhibitor project, dose response (AID 743044); type: functional, cell-based
[21] = OVCAR8 cell viability loss – plate reader, dry powder samples, PAX8 project, dose response (AID 743197); type: functional, cell-based; conditions: OVCAR-8
[22] = target: T7, Low molecular weight phosphotyrosine protein phosphatase (Homo sapiens, UniProt P24666); type: functional; conditions: read-out: IC50_Mean
T7 sequence (P24666 whole entry): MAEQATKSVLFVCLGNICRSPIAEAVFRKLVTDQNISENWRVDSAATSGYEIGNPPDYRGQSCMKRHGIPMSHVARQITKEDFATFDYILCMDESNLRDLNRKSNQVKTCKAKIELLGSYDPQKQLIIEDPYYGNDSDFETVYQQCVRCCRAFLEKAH

[23] = target: T8, Carboxy-terminal domain RNA polymerase II polypeptide A small phosphatase 1 (Homo sapiens, UniProt Q9GZU7); assay: CTDSP1 inhibitors, concentration-response, biochemical, absorbance readout, ultra-high-throughput screen actives (AID 540297); type: functional
T8 sequence (Q9GZU7 whole entry): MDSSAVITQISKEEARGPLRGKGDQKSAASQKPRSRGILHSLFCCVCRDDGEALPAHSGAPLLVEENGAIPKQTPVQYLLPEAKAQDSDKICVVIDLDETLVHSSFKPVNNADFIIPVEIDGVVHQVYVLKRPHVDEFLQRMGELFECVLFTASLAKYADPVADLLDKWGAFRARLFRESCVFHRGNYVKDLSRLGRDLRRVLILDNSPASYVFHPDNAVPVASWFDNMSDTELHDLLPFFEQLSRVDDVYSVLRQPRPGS

[24] = target: T7, Low molecular weight phosphotyrosine protein phosphatase; type: functional; conditions: read-out: IC50_Mean; remark: listed apart in the source

O=C(CSc1n[nH]c2c3cc(F)ccc3nc-2n1)NCc1ccc(F)cc1
IC50 [1]: 1.42 µM (active) | IC50 [2]: 83.3 µM (inactive) | IC50 [3]: 119 µM (inactive)

CCC(C)N1CCN(C(=O)COc2ccc3ccccc3c2)CC1 (centres undefined)
IC50 [4]: > 80 µM (inactive)

COc1cc(OC)cc(C(=O)N2CCN(C(=O)COc3ccc4ccccc4c3)CC2)c1
IC50 [4]: > 80 µM (inactive)

O=C(CN1C(=O)CCC1=O)Nc1ccc(Br)cc1
IC50 [5]: 11.1 µM (inactive) | IC50 [6]: 35.9 µM (inactive) | IC50 [7]: 8.78 µM (active)

COC(=O)c1ccc(COc2ccc(/C=N/NC(N)=S)cc2)o1
IC50 [5]: 9.77 µM (active) | IC50 [6]: 35.9 µM (inactive) | AC50 [8]: 3.63 µM (active) | EC50 [9]: 1.39 µM (active) | EC50 [10]: > 60 µM (not active) | IC50 [7]: 1.97 µM (active)

CCCCCCCCCCCCN1[C@@H](CC(=O)O)c2cc(F)ccc2S1(=O)=O
IC50 [11]: 2.62 µM (active) | IC50 [12]: 2.83 µM (active) | IC50 [13]: 4.28 µM (active)

Cc1cc(C)n2c(Nc3c(C)cccc3C)c(-c3cccnc3)nc2n1
IC50 [14]: 28.3 µM (inactive) | IC50 [15]: 16.8 µM (active)

Cc1ccc(C)c(OCCC(=O)Nc2cccc(S(=O)(=O)NC3=NCCCCC3)c2)c1
IC50 [1]: 46.4 µM (inactive) | IC50 [2]: 83.3 µM (inactive) | IC50 [3]: 98.3 µM (inactive)

C[C@@H]1CN([C@@H](C)CO)S(=O)(=O)c2ccc(C#CC3(O)CCCC3)cc2O[C@@H]1CN(C)C(=O)c1cccnc1
AC50 [16]: 7.95 µM (active)

Cc1ccc2cc(/C=C(\C#N)C(N)=O)c(N3CCCCC3)nc2c1
EC50 [17]: 50.6 µM (active) | IC50 [14]: 18.4 µM (active) | EC50 [18]: 30.7 µM (inconclusive) | IC50 [15]: 36.2 µM (inactive)

O=[N+]([O-])c1cc(F)c(N2CCCCCC2)cc1N1CCNCC1
IC50 [5]: 3.99 µM (active) | IC50 [6]: 35 µM (inactive) | IC50 [7]: 6.27 µM (active)

C[C@@H]1CCCCO[C@@H](CN(C)C(=O)Nc2ccc(C(F)(F)F)cc2)[C@H](C)CN([C@H](C)CO)C(=O)c2cc(NS(=O)(=O)c3ccc(F)cc3)ccc2O1
AC50 [19]: 5.62 µM (active) | AC50 [20]: 23.5 µM (active) | AC50 [21]: > 70 µM (inactive)

CN(C)C(=O)CSc1ccc(S(=O)(=O)N2CCCC2)cn1
IC50 [14]: 12.9 µM (active) | IC50 [15]: 20.7 µM (inactive)

Cc1ccc(/C=C/C(=O)N2CCC(Cc3ccccc3)CC2)cc1
IC50 [4]: > 80 µM (inactive)

O=C(CSc1nc(-c2ccccc2)nc2ccc(F)cc12)Nc1cccc(C(=O)O)c1
IC50 [22]: 21.4 µM (inactive) | IC50 [23]: 6.6 µM (active) | IC50 [24]: 42.2 µM (inactive)

Source: ChEMBL document CHEMBL1201862, “PubChem BioAssay data set” (2004)
